Laboratory results: patent publication US11840528B2 (Hoffmann-La Roche Inc., priority 2018, dated 2023)
pKi: −log10 of the molar value.

Experiments:
h-GABA-A α5β3γ2 [1] = molecular target: T1, h-GABA-A α5β3γ2 (Homo sapiens, UniProt P18507+P31644); test: [3H]flumazenil competition binding assay, membranes of HEK293 cells expressing GABAA receptors
Procedure: The affinity of compounds at GABAA receptor subtypes was measured by competition for [3H]flumazenil (85 Ci/mmol; Roche) binding to HEK293 cells expressing rat (stably transfected) or human (transiently transfected) receptors of composition α1β3γ2, α2β3γ2, α3β3γ2 and α5β3γ2.
Cell pellets were suspended in Krebs-tris buffer (4.8 mM KCl, 1.2 mM CaCl2), 1.2 mM MgCl2, 120 mM NaCl, 15 mM Tris; pH 7.5; binding assay buffer), homogenized by polytron for ca. 20 sec on ice and centrifuged for 60 min at 4° C. (50000 g; Sorvall, rotor: SM24=20000 rpm). The cell pellets were resuspended in Krebs-tris buffer and homogenized by polytron for ca. 15 sec on ice. Protein was measured (Bradford method, Bio-Rad) and aliquots of 1 mL were prepared and stored at −80° C.
Assays were incubated to equilibrium for 1 hour at 4° C. and harvested onto GF/C uni-filters (Packard) by filtration using a Packard harvester and washing with ice-cold wash buffer (50 mM Tris; pH 7.5). After drying, filter-retained radioactivity was detected by liquid scintillation counting. Ki values were calculated using Excel-Fit (Microsoft) and are the means of two determinations.

h-GABA-A α5β3γ2 [2] = molecular target: T1, h-GABA-A α5β3γ2; test: Two-electrode voltage clamp electrophysiology in Xenopus laevis oocytes expressing GABAA receptors, modulation of GABA EC20 current; assay type: cell-based; design: host or cells: Xenopus laevis oocytes micro-injected with RNA transcripts of the subunits
Procedure: Xenopus laevis oocytes at maturation stages V-VI were used for the expression of cloned mRNA encoding GABAA receptor subunits. Oocytes ready for RNA micro-injection were bought from Ecocyte, Castrop-Rauxel, Germany and stored in modified Barth's medium (composition in mM: NaCl 88, KCl 1, NaHCO32.4, HEPES 10, MgSO4 0.82, CaNO3 0.33, CaCl2 0.33, pH=7.5) at 20° C. until the experiment.
Oocytes were plated in 96-well plates to be used in an automated instrument (Robo-ocyte, MultiChannelSystems, Reutlingen, Germany) for microinjection and electrophysiological recordings. Approximately 50 nl of an aqueous solution containing the RNA transcripts for the subunits of the desired GABAA receptor was injected into each oocyte. RNA concentrations ranged between 0.3 and 16 ng/μl/subunit and were adjusted in pilot experiments to obtain GABA responses of a suitable size and a maximal effect of the reference modulator, Beta-CCM (β-CCM), a betacarboline negative allosteric modulator (NAM) at the GABAA receptor benzodiazepine (BZD) binding site or Midazolam, a benzodiazepine positive allosteric modulator (PAM) at the GABAA receptor benzodiazepine (BZD) binding site. The concentration of the γ2 subunit encoding RNA usually was 5- to 10-fold higher than the RNAs encoding the other subunits. Oocytes were kept in modified Barth's medium (composition in mM: NaCl 88, KCl 1, NaHCO3 4, HEPES 10, MgSO4 0.82, CaNO3 0.33, CaCl2) 0.33, pH=7.5) at 20° C. until the experiment.
Electrophysiological experiments were performed on days 3 to 5 after the micro-injection of mRNA. During the experiment the oocytes were constantly superfused by a solution containing (in mM) NaCl 90, KCl 1, HEPES 5, MgCl2 1, CaCl2) 1 (pH 7.4). Oocytes were impaled by two glass microelectrodes (resistance: 0.4 MΩ) which were filled with a solution containing KCl 1M+K-acetate 1.5 M and voltage-clamped to −80 mV. The recordings were performed at room temperature using the Roboocyte two-electrode voltage clamp system (Multichannelsystem). After an initial equilibration period of 1.5 min GABA was added for 1.5 min at a concentration evoking approximately 20% of a maximal current response (EC20). After another rest interval of 2.5 min GABA was again added evoking a response of similar amplitude and shape. 0.5 min after the onset of this second GABA application the test compound, at a concentration corresponding to approximatively 30 fold its Ki, was added while GABA was still present. Current traces were recorded at a digitization rate of 10 Hz during and shortly before and after the GABA application.
Each compound and concentration was tested on at least 3 oocytes. Different oocytes were used for different compound concentrations. β-CCM, a negative allosteric modulator, or Midazolam, a positive allosteric modulators, were tested on a few (3-6) oocytes on each 96-well plate for a positive control at a maximally effective. β-CCM inhibited the GABA-evoked current by approximatively 50% (Fold increase ˜0.5), while Midazolam potentiated the GABA-induced current by approximatively 150% (Fold increase ˜2.5).
For the analysis, the digitized current traces of the first and second GABA response were superimposed and, if necessary, rescaled to equal maximal amplitudes. The ratio between the two responses during the time interval of test compound application was calculated point by point. The extremum of the resulting “ratio trace” was taken as the efficacy (“Fold increase”) of the compound expressed as “% modulation of GABA EC20” (100*(Fold increase-1)).

[3] = displacement of [3H]-Flumazenil 0.5 nM, HEK293 cells expressing human receptors, mean of two determinations, Table 1
[4] = % modulation of GABA EC20 = 100*(Fold increase-1), Table 1
[5] = test compound at approx. 30 fold its Ki, GABA at EC20, Table 1
[6] = reference compounds, % modulation of GABA EC20, Table 2
[7] = positive control at a maximally effective concentration, 3-6 oocytes per plate

| SMILES | pKi (h-GABA-A α5β3γ2 [1]; [3]) | Efficacy (GABA) % (h-GABA-A α5β3γ2 [2]; [4]) [%] | Fold increase h-GABA-A α5β3γ2 oocyte (h-GABA-A α5β3γ2 [2]; [5]) | further results |
| --- | --- | --- | --- | --- |
| Cc1cc(-c2noc(C)c2Cn2ncc(N3CC4(CCCO4)C3)cc2=O)no1 [Example 142, 2-[[5-methyl-3-(5-methylisoxazol-3-yl)isoxazol-4-yl]methyl]-5-(5-oxa-2-azaspiro[3.4]octan-2-yl)pyridazin-3-one] | 7.81 | 48 | 1.48 |  |
| CC(=O)N(C)[C@H]1CCN(c2cnn(Cc3c(-c4ccc(C)nc4)noc3C)c(=O)c2)C1 [Example 1, N-methyl-N-[(3S)-1-[1-[[5-methyl-3-(6-methyl-3-pyridyl)isoxazol-4-yl]methyl]-6-oxo-pyridazin-4-yl]pyrrolidin-3-yl]acetamide] | 7.99 | 63 | 1.63 |  |
| Cc1onc(-c2ccc(Cl)cn2)c1Cn1ncc(N2CC3(C2)CN(C2CC2)C3)cc1=O [Example 86, 2-[[3-(5-chloro-2-pyridyl)-5-methyl-isoxazol-4-yl]methyl]-5-(2-cyclopropyl-2,6-diazaspiro[3.3]heptan-6-yl)pyridazin-3-one] | 7.92 | 87 | 1.87 |  |
| Cc1ccc(-c2noc(C)c2Cn2ncc(N3CC4(C[C@H](O)CO4)C3)cc2=O)cn1 [Example 131, 5-[(7S)-7-hydroxy-5-oxa-2-azaspiro[3.4]octan-2-yl]-2-[[5-methyl-3-(6-methyl-3-pyridyl)isoxazol-4-yl]methyl]pyridazin-3-one] | 7.77 | 105 | 2.05 |  |
| Cc1onc(-c2ccc(Cl)nc2)c1Cn1ncc(N2CCC3(CC2)CC(F)CCO3)cc1=O (single isomer, unassigned) [Example 331] | 7.75 | 159 | 2.59 |  |
| Cc1ccc(-c2noc(C)c2Cn2ncc(N3CC[C@H](C(=O)NC4CC4)C3)cc2=O)cn1 [Example 57, (3S)—N-cyclopropyl-1-[1-[[5-methyl-3-(6-methyl-3-pyridyl)isoxazol-4-yl]methyl]-6-oxo-pyridazin-4-yl]pyrrolidine-3-carboxamide] | 7.25 | 198 | 2.98 |  |
| COC1CN(c2cnn(Cc3c(-c4ccc(C)nn4)noc3C)c(=O)c2)C1 [Example 169, 5-(3-methoxyazetidin-1-yl)-2-[[5-methyl-3-(6-methylpyridazin-3-yl)isoxazol-4-yl]methyl]pyridazin-3-one] | 8.62 | 97 | 1.97 |  |
| Cc1ccc(-c2noc(C)c2Cn2ncc(N3CCC4(CC3)COC4)cc2=O)cn1 [Example 46, 2-[[5-methyl-3-(6-methyl-3-pyridyl)isoxazol-4-yl]methyl]-5-(2-oxa-7-azaspiro[3.5]nonan-7-yl)pyridazin-3-one] | 7.82 | 107 | 2.07 |  |
| CC1(C(=O)N2CCN(c3cnn(Cc4c(-c5ccc(Cl)cn5)noc4C4CC4)c(=O)c3)CC2)CC1 [Example 26, 2-((3-(5-Chloropyridin-2-yl)-5-cyclopropylisoxazol-4-yl)methyl)-5-(4-(1-methylcyclopropanecarbonyl)piperazin-1-yl)pyridazin-3(2H)-one] | 7.55 | 247 | 3.47 |  |
| Cc1onc(-c2ccc(Cl)nc2)c1Cn1ncc(N2CCC3(CC2)COC3)cc1=O [Example 258, 2-((3-(6-chloropyridin-3-yl)-5-methylisoxazol-4-yl)methyl)-5-(2-oxa-7-azaspiro[3.5]nonan-7-yl)pyridazin-3(2H)-one] | 7.46 | 126 | 2.26 |  |
| Cc1ccc(-c2noc(C)c2Cn2ncc(N3CC(Oc4ccccc4F)C3)cc2=O)cn1 [Example 128, 5-[3-(2-fluorophenoxy)azetidin-1-yl]-2-[[5-methyl-3-(6-methyl-3-pyridyl)isoxazol-4-yl]methyl]pyridazin-3-one] | 7.95 | 120 | 2.2 |  |
| Cc1cc(C)n(-c2ccc(OCc3c(-c4ccccc4)noc3C)nn2)n1 [RO-039, reference compound] |  |  |  | pKi (h-GABA-A α5β3γ2 [1]; reference compounds, Table 2): 8.29; Efficacy (GABA) % (h-GABA-A α5β3γ2 [2]; [6]): −17%; Fold increase h-GABA-A α5β3γ2 oocyte (h-GABA-A α5β3γ2 [2]; reference compounds, Table 2): 0.83 |
| Cc1ccc(-c2noc(C)c2Cn2ncc(N3CC4(CCC(C(F)(F)F)CO4)C3)cc2=O)nn1 (single isomer, unassigned) [Example 320] | 7.61 | 226 | 3.26 |  |
| Cc1ccc(-c2noc(C)c2Cn2ncc(N3CC4CC(C3)O4)cc2=O)cn1 [Example 100, 2-[[5-methyl-3-(6-methyl-3-pyridyl)isoxazol-4-yl]methyl]-5-(6-oxa-3-azabicyclo[3.1.1]heptan-3-yl)pyridazin-3-one] | 7.91 | 105 | 2.05 |  |
| Cc1onc(-c2ccc(Cl)nc2)c1Cn1ncc(N2CCN(c3cncnc3)CC2)cc1=O [Example 277, 2-((3-(6-chloropyridin-3-yl)-5-methylisoxazol-4-yl)methyl)-5-(4-(pyrimidin-5-yl)piperazin-1-yl)pyridazin-3(2H)-one] | 8.47 | 131 | 2.31 |  |
| COC(=O)c1cc2c(cn1)[nH]c1ccccc12 [β-CCM, reference compound] |  |  |  | Fold increase (h-GABA-A α5β3γ2 [2]; [7]): ~0.5; inhibition of the GABA-evoked current (h-GABA-A α5β3γ2 [2]; [7]): ~50% |
| Cc1onc(-c2ccc(Cl)cn2)c1COc1ccc(C(=O)N2CCOCC2)cn1 [RO-309, reference compound] |  |  |  | Efficacy (GABA) % (h-GABA-A α5β3γ2 [2]; [6]): −17%; Fold increase h-GABA-A α5β3γ2 oocyte (h-GABA-A α5β3γ2 [2]; reference compounds, Table 2): 0.83 |
| Cc1ncc2n1-c1ccc(Cl)cc1C(c1ccccc1F)=NC2 [Midazolam, reference compound] |  |  |  | Fold increase (h-GABA-A α5β3γ2 [2]; [7]): ~2.5; potentiation of the GABA-induced current (h-GABA-A α5β3γ2 [2]; [7]): ~150% |
